The values below come from patent publication US10927085B2, “1,2-naphthoquinone based derivative and method of preparing the same” (HUEN Co., Ltd., priority 2013, dated 2021).

One assay concerns cells. The assay can be described thus: Measurement of lactate change amount within cells. It counts as cell-based.
Details: not given
The method, then:
Cells were treated with 400 μl of 6% PCA, and then collected and extracted. Centrifugation (13,000 rpm, 10 min) was performed. A precipitate was dried using a Speed-Vac and then a weight of dried precipitate was measured. A supernatant was neutralized using 400 μl of 1 M KOH and a final volume thereof was adjusted to 1 ml using 0.33 M KH2PO4/K2HPO4, pH 7.5. Centrifugation (13,000 rpm, 10 min) was performed and the amount of lactate in a supernatant was measured (Megazyme, K-LATE).
As to `CC(C)c1nc2c(o1)C(=O)C(=O)c1ncccc1-2` [Example 33], the “Lactate change amount within cells (nmol/mg cell)” value (from here on “Lactate change amount within cells”) is recorded as 10.2 nmol/mg cell.

For the molecule `CC(C)c1nc2c(o1)-c1cccnc1C(=O)C2=O` [Example 20, 2-isopropyloxazolo[5,4-f]quinoline-4,5-dione], the “Lactate change amount within cells” value worked out at 9.2 nmol/mg cell.

For the molecule `Cc1cc(=O)n(C)c2c1-c1oc(C(C)C)nc1C(=O)C2=O` [Example 7, 2-isopropyl-6,9-dimethyloxazolo[5,4-f]quinoline-4,5,7(6H)-trione], the “Lactate change amount within cells” value is given as 8.0 nmol/mg cell.

Consider `CC(C)(C)c1nc2c(o1)-c1c(cccc1[N+](=O)[O-])C(=O)C2=O` [Example 18], for which the “Lactate change amount within cells” value was 13.5 nmol/mg cell.

Regarding `Cc1nc2c(o1)C(=O)C(=O)c1ncccc1-2` [Example 34], the “Lactate change amount within cells” value came to 8.9 nmol/mg cell.

As for `Cc1cc(F)ccc1NCc1nc2c(o1)-c1ccccc1C(=O)C2=O` [Example 49], the “Lactate change amount within cells” value was 6.0 nmol/mg cell.

On to `COc1cccc2c1-c1oc(CN(C)C)nc1C(=O)C2=O` [Example 11, 2-((dimethylamino)methyl)-9-methoxynaphtho[2,1-d]oxazole-4,5-dione], for which the “Lactate change amount within cells” value came out at 6.6 nmol/mg cell.

On to `O=C1C(=O)c2nc(CNc3ccccc3)oc2-c2ccccc21` [Example 48], for which the “Lactate change amount within cells” value is given as 6.9 nmol/mg cell.

On to `CC(=O)OCc1nc2c(o1)-c1ccccc1C(=O)C2=O` [Example 50], for which the “Lactate change amount within cells” value is recorded as 8.8 nmol/mg cell.

In the case of `CN(Cc1nc2c(o1)-c1ccccc1C(=O)C2=O)c1ccc(F)cc1` [Example 47], the “Lactate change amount within cells” value amounted to 7.6 nmol/mg cell.

With `CC(C)c1nc2c(o1)-c1c(cccc1[N+](=O)[O-])C(=O)C2=O` [Example 12, 2-isopropyl-9-nitronaphtho[2,1-d]oxazole-4,5-dione], the “Lactate change amount within cells” value was found to be 10.3 nmol/mg cell.

On to `CC(C)c1nc2c(o1)-c1cnccc1C(=O)C2=O` [Example 37, 2-isopropyloxazolo[4,5-h]isoquinoline-4,5-dione], for which the “Lactate change amount within cells” value is reported as 10.6 nmol/mg cell.

For `CC(C)(C)c1nc2c(o1)C(=O)C(=O)c1cc(Cl)ccc1-2` [Example 31, 2-tert-butyl-7-chloronaphtho[1,2-d]oxazole-4,5-dione], the “Lactate change amount within cells” value stood at 10.9 nmol/mg cell.

With `CC(C)C(=O)Nc1ccc2c(c1)C(=O)C(=O)c1oc(C(C)(C)C)nc1-2` [Example 38, N-(2-tert-butyl-4,5-dioxo-4,5-dihydronaphtho[1,2-d]oxazol-7-yl)isobutyramide], the “Lactate change amount within cells” value amounted to 4.6 nmol/mg cell.

Turning to `O=C1C(=O)c2nc(-c3ccccc3)oc2-c2ccccc21` [Example 3, 2-phenylnaphtho[2,1-d]oxazole-4,5-dione], the “Lactate change amount within cells” value was determined as 8.1 nmol/mg cell.

On to `CC(C)(C)c1nc2c(o1)C(=O)C(=O)c1cccnc1-2` [Example 40], for which the “Lactate change amount within cells” value was determined as 8.1 nmol/mg cell.

For the molecule `O=C1C(=O)c2nc(CNc3ccc(Cl)cc3)oc2-c2ccccc21` [Example 44], the “Lactate change amount within cells” value is 5.4 nmol/mg cell.

Turning to `O=C1C(=O)c2[nH]c(=O)oc2-c2ccccc21` [Example 39], the “Lactate change amount within cells” value is given as 7.8 nmol/mg cell.

Take `O=C1C(=O)c2nc(CNc3cccc(Cl)c3)oc2-c2ccccc21` [Example 45]: the “Lactate change amount within cells” value was 6.7 nmol/mg cell.

Take `COc1cccc2c1C(=O)C(=O)c1nc(C(C)C)oc1-2` [Example 10, 2-isopropyl-6-methoxynaphtho[2,1-d]oxazole-4,5-dione]: the “Lactate change amount within cells” value stood at 11.5 nmol/mg cell.

Consider `COc1ccc(NCc2nc3c(o2)-c2ccccc2C(=O)C3=O)cc1` [Example 46], for which the “Lactate change amount within cells” value is reported as 7.4 nmol/mg cell.

Regarding `O=C1C(=O)c2nc(CN3CCCCC3)oc2-c2ccccc21` [Example 6, 2-(piperidin-1-ylmethyl)naphtho[2,1-d]oxazole-4,5-dione], the “Lactate change amount within cells” value was determined as 6.7 nmol/mg cell.

For the molecule `O=C1C(=O)c2nc(CNc3ccc(F)cc3)oc2-c2ccccc21` [Example 43], the “Lactate change amount within cells” value worked out at 4.4 nmol/mg cell.

Take `CC(C)c1nc2c(o1)-c1cccc(O)c1C(=O)C2=O` [Example 15, 6-hydroxy-2-isopropylnaphtho[2,1-d]oxazole-4,5-dione]: the “Lactate change amount within cells” value worked out at 4.1 nmol/mg cell.

For the next assay, the target named is NQO1 protein (Homo sapiens, UniProt P15559). The assay can be described thus: NQO1 activity measurement (cytochrome C reduction). It counts as biochemical.
Chain of NQO1 protein (P15559 whole entry, species assumed): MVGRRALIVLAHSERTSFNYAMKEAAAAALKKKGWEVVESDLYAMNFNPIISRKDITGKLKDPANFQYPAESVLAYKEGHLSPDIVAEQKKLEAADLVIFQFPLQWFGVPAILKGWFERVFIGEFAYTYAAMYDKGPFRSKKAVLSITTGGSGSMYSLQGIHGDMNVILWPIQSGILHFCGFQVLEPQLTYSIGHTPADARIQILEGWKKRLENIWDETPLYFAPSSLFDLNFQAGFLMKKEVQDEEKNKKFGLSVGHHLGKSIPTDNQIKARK
Details: not given
The method, then: An enzyme reaction solution included 25 mM Tris/HCl (pH 7.4), 0.14% bovine serum albumin, 200 μM NADH, 77 μM cytochrome C, and 5 ng of NQO1 protein. Enzymatic reaction was initiated by adding NADH and performed at 37° C. In this regard, a reaction rate was measured by observing absorbance, which was increased due to reduction of cytochrome C, at 550 nm for 10 minutes and NQO1 activity was represented as an amount of reduced cytochrome C [nmol cytochrome C reduced/min/μg protein].
Extinction coefficient for cytochrome C:21.1 mmol/L/cm=21.1 μmol/ml/cm
For `Cc1cc(=O)n(C)c2c1-c1oc(C(C)C)nc1C(=O)C2=O` [Example 7, 2-isopropyl-6,9-dimethyloxazolo[5,4-f]quinoline-4,5,7(6H)-trione], the “NQO1 activity (5 μM, [nmol cytochrome C reduced/min/μg protein])” value is 69.8 nmol cytochrome C reduced/min/μg protein.

On to `O=C1C(=O)c2nc(CNc3ccccc3)oc2-c2ccccc21` [Example 48], for which the “NQO1 activity (5 μM, [nmol cytochrome C reduced/min/μg protein])” value was 241.4 nmol cytochrome C reduced/min/μg protein.

With `Cc1cc(=O)[nH]c2c1-c1oc(C(C)C)nc1C(=O)C2=O` [Example 14, 2-isopropyl-9-methyloxazolo[5,4-f]quinoline-4,5,7(6H)-trione], the “NQO1 activity (5 μM, [nmol cytochrome C reduced/min/μg protein])” value was 104.2 nmol cytochrome C reduced/min/μg protein.

For `O=C1C(=O)c2nc(CNc3ccc(Cl)cc3)oc2-c2ccccc21` [Example 44], the “NQO1 activity (5 μM, [nmol cytochrome C reduced/min/μg protein])” value was 239.0 nmol cytochrome C reduced/min/μg protein.

With `O=C1C(=O)c2nc(CNc3cccc(Cl)c3)oc2-c2ccccc21` [Example 45], the “NQO1 activity (5 μM, [nmol cytochrome C reduced/min/μg protein])” value is given as 229.2 nmol cytochrome C reduced/min/μg protein.

As to `COc1ccc(NCc2nc3c(o2)-c2ccccc2C(=O)C3=O)cc1` [Example 46], the “NQO1 activity (5 μM, [nmol cytochrome C reduced/min/μg protein])” value is on record as 208.0 nmol cytochrome C reduced/min/μg protein.

Take `O=C1C(=O)c2nc(CNc3ccc(F)cc3)oc2-c2ccccc21` [Example 43]: the “NQO1 activity (5 μM, [nmol cytochrome C reduced/min/μg protein])” value was 263.0 nmol cytochrome C reduced/min/μg protein.

The same assay, now with this note: 5 μM; 37° C.; absorbance at 550 nm for 10 minutes; 200 μM NADH, 77 μM cytochrome C, 5 ng NQO1 protein.
Consider `CC(C)c1nc2c(o1)C(=O)C(=O)c1ncccc1-2` [Example 33], for which the “NQO1 activity (5 μM, [nmol cytochrome C reduced/min/μg protein])” value was 458.3 nmol cytochrome C reduced/min/μg protein.

`CC(C)c1nc2c(o1)-c1cccnc1C(=O)C2=O` [Example 20, 2-isopropyloxazolo[5,4-f]quinoline-4,5-dione]: the “NQO1 activity (5 μM, [nmol cytochrome C reduced/min/μg protein])” value was 221.0 nmol cytochrome C reduced/min/μg protein.

`CC(C)(C)c1nc2c(o1)-c1c(cccc1[N+](=O)[O-])C(=O)C2=O` [Example 18]: the “NQO1 activity (5 μM, [nmol cytochrome C reduced/min/μg protein])” value is recorded as 382.9 nmol cytochrome C reduced/min/μg protein.

`Cc1nc2c(o1)C(=O)C(=O)c1ncccc1-2` [Example 34]: the “NQO1 activity (5 μM, [nmol cytochrome C reduced/min/μg protein])” value was 923.5 nmol cytochrome C reduced/min/μg protein.

For the molecule `CC(C)(C)c1nc2c(o1)-c1c(O)cccc1C(=O)C2=O` [Example 25, 2-tert-butyl-9-hydroxynaphtho[2,1-d]oxazole-4,5-dione], the “NQO1 activity (5 μM, [nmol cytochrome C reduced/min/μg protein])” value is recorded as 23.5 nmol cytochrome C reduced/min/μg protein.

As to `Cc1cc(F)ccc1NCc1nc2c(o1)-c1ccccc1C(=O)C2=O` [Example 49], the “NQO1 activity (5 μM, [nmol cytochrome C reduced/min/μg protein])” value is listed as 229.6 nmol cytochrome C reduced/min/μg protein.

With `CC(=O)OCc1nc2c(o1)-c1ccccc1C(=O)C2=O` [Example 50], the “NQO1 activity (5 μM, [nmol cytochrome C reduced/min/μg protein])” value is 244.3 nmol cytochrome C reduced/min/μg protein.

On to `COc1ccc([N+](=O)[O-])c2c1C(=O)C(=O)c1nc(C(C)(C)C)oc1-2` [Example 22, 2-tert-butyl-6-methoxy-9-nitronaphtho[2,1-d]oxazole-4,5-dione], for which the “NQO1 activity (5 μM, [nmol cytochrome C reduced/min/μg protein])” value is recorded as 102.5 nmol cytochrome C reduced/min/μg protein.

On to `CN(Cc1nc2c(o1)-c1ccccc1C(=O)C2=O)c1ccc(F)cc1` [Example 47], for which the “NQO1 activity (5 μM, [nmol cytochrome C reduced/min/μg protein])” value is given as 227.5 nmol cytochrome C reduced/min/μg protein.

Turning to `COc1c([N+](=O)[O-])ccc2c1C(=O)C(=O)c1nc(C(C)(C)C)oc1-2` [Example 21, 2-tert-butyl-6-methoxy-7-nitronaphtho[2,1-d]oxazole-4,5-dione], the “NQO1 activity (5 μM, [nmol cytochrome C reduced/min/μg protein])” value was 40.3 nmol cytochrome C reduced/min/μg protein.

As to `CC(C)c1nc2c(o1)-c1c(cccc1[N+](=O)[O-])C(=O)C2=O` [Example 12, 2-isopropyl-9-nitronaphtho[2,1-d]oxazole-4,5-dione], the “NQO1 activity (5 μM, [nmol cytochrome C reduced/min/μg protein])” value is on record as 379.2 nmol cytochrome C reduced/min/μg protein.

On to `CC(C)c1nc2c(o1)-c1cnccc1C(=O)C2=O` [Example 37, 2-isopropyloxazolo[4,5-h]isoquinoline-4,5-dione], for which the “NQO1 activity (5 μM, [nmol cytochrome C reduced/min/μg protein])” value is on record as 845.7 nmol cytochrome C reduced/min/μg protein.

For the molecule `CC(C)(C)c1nc2c(o1)-c1cccc(O)c1C(=O)C2=O` [Example 17, 2-tert-butyl-6-hydroxynaphtho[2,1-d]oxazole-4,5-dione], the “NQO1 activity (5 μM, [nmol cytochrome C reduced/min/μg protein])” value is given as 7.4 nmol cytochrome C reduced/min/μg protein.

Regarding `CC(C)(C)c1nc2c(o1)-c1c(N)cccc1C(=O)C2=O` [Example 19], the “NQO1 activity (5 μM, [nmol cytochrome C reduced/min/μg protein])” value is 0.4 nmol cytochrome C reduced/min/μg protein.

On to `CC(C)C(=O)Nc1ccc2c(c1)C(=O)C(=O)c1oc(C(C)(C)C)nc1-2` [Example 38, N-(2-tert-butyl-4,5-dioxo-4,5-dihydronaphtho[1,2-d]oxazol-7-yl)isobutyramide], for which the “NQO1 activity (5 μM, [nmol cytochrome C reduced/min/μg protein])” value is on record as 63.4 nmol cytochrome C reduced/min/μg protein.

For the molecule `CC(C)(C)c1nc2c(o1)-c1c([N+](=O)[O-])ccc(O)c1C(=O)C2=O` [Example 23, 2-tert-butyl-6-hydroxy-9-nitronaphtho[2,1-d]oxazole-4,5-dione], the “NQO1 activity (5 μM, [nmol cytochrome C reduced/min/μg protein])” value is listed as 60.9 nmol cytochrome C reduced/min/μg protein.

Consider `O=C1C(=O)c2nc(-c3ccccc3)oc2-c2ccccc21` [Example 3, 2-phenylnaphtho[2,1-d]oxazole-4,5-dione], for which the “NQO1 activity (5 μM, [nmol cytochrome C reduced/min/μg protein])” value was 255.5 nmol cytochrome C reduced/min/μg protein.

`CC(C)(C)c1nc2c(o1)C(=O)C(=O)c1cccnc1-2` [Example 40]: the “NQO1 activity (5 μM, [nmol cytochrome C reduced/min/μg protein])” value was 527.4 nmol cytochrome C reduced/min/μg protein.

With `O=C1C(=O)c2[nH]c(=O)oc2-c2ccccc21` [Example 39], the “NQO1 activity (5 μM, [nmol cytochrome C reduced/min/μg protein])” value is reported as 30.1 nmol cytochrome C reduced/min/μg protein.

With `CC(C)c1nc2c(o1)-c1c(N)cccc1C(=O)C2=O` [Example 13], the “NQO1 activity (5 μM, [nmol cytochrome C reduced/min/μg protein])” value is 68.6 nmol cytochrome C reduced/min/μg protein.

Turning to `COc1cccc2c1C(=O)C(=O)c1nc(C(C)C)oc1-2` [Example 10, 2-isopropyl-6-methoxynaphtho[2,1-d]oxazole-4,5-dione], the “NQO1 activity (5 μM, [nmol cytochrome C reduced/min/μg protein])” value was 20.7 nmol cytochrome C reduced/min/μg protein.

On to `O=C1C(=O)c2nc(CN3CCCCC3)oc2-c2ccccc21` [Example 6, 2-(piperidin-1-ylmethyl)naphtho[2,1-d]oxazole-4,5-dione], for which the “NQO1 activity (5 μM, [nmol cytochrome C reduced/min/μg protein])” value is listed as 171.8 nmol cytochrome C reduced/min/μg protein.

Turning to `COc1cccc2c1C(=O)C(=O)c1nc(C(C)(C)C)oc1-2` [Example 16, 2-tert-butyl-6-methoxynaphtho[2,1-d]oxazole-4,5-dione], the “NQO1 activity (5 μM, [nmol cytochrome C reduced/min/μg protein])” value was 4.2 nmol cytochrome C reduced/min/μg protein.

With `CC(C)c1nc2c(o1)-c1cccc(O)c1C(=O)C2=O` [Example 15, 6-hydroxy-2-isopropylnaphtho[2,1-d]oxazole-4,5-dione], the “NQO1 activity (5 μM, [nmol cytochrome C reduced/min/μg protein])” value is recorded as 20.8 nmol cytochrome C reduced/min/μg protein.
